From US12441754B2, “Galactoside inhibitor of galectins” (GALECTO BIOTECH AB, priority 2019, dated 2025)
Like-named read-outs stand apart in the source and are kept apart here.

Key:
[1] = biological target: T1, Galectin-1 (Homo sapiens, UniProt P09382); settings: T. Delaine 2016; read-out: affinity to Galectin-1; cited from earlier work
[2] = CACO-2 model of uptake over the human intestine; type: in vitro ADME; settings: human, Caco-2
Source text: (§1) For some compounds of this invention wherein R^1 of formula 1 is an alkylated hydroxy, for example —OCH3 high uptake and no efflux is observed in a CACO-2 model of uptake ver the human intestine. That predicts high likeliness of high human oral bioavailability.

[3] = tested on: CACO-2; test: CACO-2 model of uptake over the human intestine; type: in vitro ADME; settings: result in words
Source text: as §1

[4] = biological target: Galectin-3 (Homo sapiens, UniProt P17931); test: fluorescence anisotropy assay, compound as inhibitor of galectin / fluorescein tagged saccharide probe interaction; type: binding
Galectin-3, sequence (P17931 whole entry): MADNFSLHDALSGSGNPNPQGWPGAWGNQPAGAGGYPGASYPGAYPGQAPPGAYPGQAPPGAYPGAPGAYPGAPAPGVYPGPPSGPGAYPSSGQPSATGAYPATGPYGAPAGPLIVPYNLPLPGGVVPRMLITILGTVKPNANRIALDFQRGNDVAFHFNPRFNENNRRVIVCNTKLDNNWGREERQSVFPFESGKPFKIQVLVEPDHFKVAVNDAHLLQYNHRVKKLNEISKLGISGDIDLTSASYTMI
Source text: (§2) Anal. Biochem. 334: 36-47, (Sörme et al., 2004) and Monovalent interactions of Galectin-1 By Salomonsson, Emma; Larumbe, Amaia; Tejler, Johan; Tullberg, Erik; Rydberg, Hanna; Sundin, Anders; Khabut, Areej; Frejd, Torbjorn; Lobsanov, Yuri D.; Rini, James M.; et al, From Biochemistry (2010), 49(44), 9518-9532, (Salomonsson et al., 2010).

[5] = biological target: T1, Galectin-1; test: as above; type: binding; settings: read-out: Galectin-1 Kd
Source text: as §2

T1 sequence (P09382 whole entry): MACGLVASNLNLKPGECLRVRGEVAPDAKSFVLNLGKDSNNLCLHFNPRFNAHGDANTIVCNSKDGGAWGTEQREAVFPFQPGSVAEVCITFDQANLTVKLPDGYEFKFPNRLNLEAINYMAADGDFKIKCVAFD

SMILES | Kd [1] [µM] | Papp A→B ([2]; A>B, read-out: Papp from the apical to the basolateral side (A>B)) [×10⁻⁶ cm/s] | Papp B→A ([2]; B>A, read-out: Papp from the basolateral to the apical side B>A) [×10⁻⁶ cm/s] | uptake and efflux in CACO-2 model [3] | Kd [4] [µM] | Kd [5] [µM]
OCC1O[C@@H](SC2O[C@H](CO)C(O)C(n3cc(-c4ccsc4)nn3)[C@H]2O)C(O)C(n2cc(-c3ccsc3)nn2)[C@H]1O (stereo partly drawn) | < 0.01 | – | – | – | – | –
CO[C@@H]1[C@@H](n2cc(-c3nccs3)nn2)[C@@H](O)[C@@H](CO)O[C@@H]1Sc1cc(Cl)c(F)c(Cl)c1 [Example 1, 3,5-Dichloro-4-fluorophenyl 3-deoxy-2-O-methyl-3-[4-(2-thiazolyl)-1H-1,2,3-triazol-1-yl]-1-thio-α-D-galactopyranoside] | – | 20 | 28 | the uptake is very high and virtually no efflux is observed | 8 | 0.175
